Results published in patent EP1561465A2, “Methods of use of fluoroquinolone compounds against bacteria” (LG Life Sciences, Ltd., priority 1999, dated 2001).
≈ marks a conversion by molar mass, not a printed value. Where two headings read alike, the source gives them in different places.

Columns and labels:
Campylobacter jejuni = test: MIC by agar dilution (NCCLS M7-A4), 288 enteropathogenic isolates, gemifloxacin and 15 other antimicrobials; conditions: for MIC: Campylobacter jejuni
Enterobacter spp. = test: MIC by agar dilution (NCCLS), 322 nosocomial Gram negative isolates, Athens 1998; type: cell-based; conditions: Enterobacter, n = 57 isolates; for MIC50: read-out: MIC50; for MIC90: read-out: MIC90
Klebsiella pneumoniae [1] = test: as above; type: cell-based; conditions: n = 56 isolates; for MIC50 / MIC90: Klebsiella pneumoniae
Acinetobacter spp. = test: as above; type: cell-based; conditions: n = 38 strains; for MIC50 / MIC90: Acinetobacter
Streptococcus pneumoniae = test: MIC by broth microdilution (NCCLS), dried MicroScan panels, clinical isolates 1998-1999; type: cell-based; conditions: for MIC90: Streptococcus pneumoniae
Shigella spp. [2] = test: MIC by agar dilution (NCCLS M7-A4), 288 enteropathogenic isolates, gemifloxacin and 15 other antimicrobials; type: cell-based; conditions: Shigella spp. N= 21
Outline: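 Agar dilution with ~10^4 cfu/spot inoculum; plates incubated aerobically at 35 °C for 24 h, except C. jejuni, held microaerophilically for 48 h. MIC taken as lowest antibiotic concentration with no visible growth.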

Staphylococcus aureus = test: MIC by agar dilution (NCCLS), 411 isolates Buenos Aires 1998-99; type: cell-based; conditions: for MIC90: Staphylococcus aureus
Haemophilus influenzae = test: as above; type: cell-based; conditions: Haemophilus influenzae (n = 65)
Streptococcus pyogenes = test: as above; type: cell-based; conditions: Streptococcus pyogenes (n = 69)
Klebsiella pneumoniae [3] = test: MIC by NCCLS broth microdilution, 1100 Japanese clinical isolates 1997-1998; type: cell-based; conditions: Klebsiella pneumoniae (n=35)
P. aeruginosa = test: MIC by two-fold serial agar dilution, quinolone-resistant strains; type: cell-based; conditions: Pseudomonas aeruginosa
Salmonella spp. = test: MIC by NCCLS broth microdilution, 1100 Japanese clinical isolates 1997-1998; type: cell-based; conditions: Salmonella spp. (n=29)
Klebsiella oxytoca = test: as above; type: cell-based; conditions: Klebsiella oxytoca (n=40)
Serratia marcescens = test: as above; type: cell-based
E. coli = test: microbe, parasite or virus in culture; type: cell-based; conditions: Escherichia coli
Shigella spp. [4] = test: MIC by NCCLS broth microdilution, 1100 Japanese clinical isolates 1997-1998; type: cell-based; conditions: Shigella spp. (n=34)
Enterobacter aerogenes = test: as above; type: cell-based; conditions: Enterobacter aerogenes (n=35)
[5] = Streptococcus pneumoniae (302 isolates)
[6] = 24 h, read-out: MIC (mg/L) Range
[7] = S. aureus, Methicillin resistant (n = 14)

## Cc1c(F)c(N2CCNC(C)C2)cc2c1c(=O)c(C(=O)O)cn2C1CC1 (stereo not drawn) [Grepafloxacin, grepafloxacin]
Campylobacter jejuni; Campylobacter jejuni N= 91
  MIC (mg/L) Range: 0.03 to 128 mg/L
Campylobacter jejuni; read-out: MIC (mg/L) 50%
  MIC: 32 mg/L (≈ 89 µM)
Campylobacter jejuni; read-out: MIC (mg/L) 90%
  MIC: 64 mg/L (≈ 178 µM)
Enterobacter spp.
  MIC50: 0.06 µg/mL (≈ 0.167 µM)
  MIC90: > 64 µg/mL
Klebsiella pneumoniae [1]
  MIC50: 0.125 µg/mL (≈ 0.348 µM)
  MIC90: 1 µg/mL (≈ 2.78 µM)
  MIC Range: ≤0.03 to 64 µg/mL
Acinetobacter spp.
  MIC50: 2 µg/mL (≈ 5.56 µM)
  MIC90: 64 µg/mL (≈ 178 µM)
  MIC Range: ≤0.03 to 64 µg/mL
Streptococcus pneumoniae; [5]
  MIC50: 0.03 µg/mL (≈ 0.0835 µM)
  MIC Range: ≤0.015 to 0.25 µg/mL
  MIC90: 0.12 µg/mL (≈ 0.334 µM)
Streptococcus pneumoniae; Erythromycin-resistant (86)
  MIC90: 0.12 µg/mL (≈ 0.334 µM)
Streptococcus pneumoniae; Erythromycin-sensitive (216)
  MIC90: 0.25 µg/mL (≈ 0.696 µM)
Streptococcus pneumoniae; Penicillin-intermediate (124)
  MIC90: 0.12 µg/mL (≈ 0.334 µM)
Streptococcus pneumoniae; Penicillin-resistant (80)
  MIC90: 0.12 µg/mL (≈ 0.334 µM)
Streptococcus pneumoniae; Penicillin-sensitive (98)
  MIC90: 0.12 µg/mL (≈ 0.334 µM)
Shigella spp. [2]; [6]
  MIC: 0.015 to 0.03 mg/L (≈ 0.0417 to 0.0835 µM)
Shigella spp. [2]; read-out: MIC (mg/L) 50%
  MIC: ≤ 0.015 mg/L
Shigella spp. [2]; read-out: MIC (mg/L) 90%
  MIC: 0.03 mg/L (≈ 0.0835 µM)

## CC1COc2c(N3CCN(C)CC3)c(F)cc3c(=O)c(C(=O)O)cn1c23 (stereo not drawn) [Ofloxacin, ofloxacin]
Staphylococcus aureus; [7]
  Resistance (%): 100%
  MIC90: 16 µg/mL (≈ 44.3 µM)
Staphylococcus aureus; S. aureus, Methicillin susceptible (n = 66)
  Resistance (%): 0%
Staphylococcus aureus; Staphylococcus aureus (n = 80)
  MIC90: 8 µg/mL (≈ 22.1 µM)
Campylobacter jejuni; read-out: MIC (mg/L) 50%
  MIC: 16 mg/L (≈ 44.3 µM)
Campylobacter jejuni; read-out: MIC (mg/L) 90%
  MIC: 32 mg/L (≈ 88.6 µM)
Haemophilus influenzae
  MIC90: 0.06 µg/mL (≈ 0.166 µM)
  MIC Range: 0.008 to 0.25 µg/mL
Enterobacter spp.
  MIC50: 0.125 µg/mL (≈ 0.346 µM)
  MIC90: 64 µg/mL (≈ 177 µM)
Klebsiella pneumoniae [1]
  MIC50: 0.125 µg/mL (≈ 0.346 µM)
  MIC90: 1 µg/mL (≈ 2.77 µM)
  MIC Range: 0.06 to 32 µg/mL
Acinetobacter spp.
  MIC50: 8 µg/mL (≈ 22.1 µM)
  MIC90: 64 µg/mL (≈ 177 µM)
  MIC Range: 0.125 to 64 µg/mL
Streptococcus pyogenes
  MIC Range: 0.5 to 4 µg/mL
Streptococcus pyogenes; read-out: MIC90
  MIC90: 2 µg/mL (≈ 5.53 µM)
Streptococcus pneumoniae; [5]
  MIC50: 2 µg/mL (≈ 5.53 µM)
  MIC Range: ≤0.06 to 4 µg/mL
  MIC90: 4 µg/mL (≈ 11.1 µM)
Streptococcus pneumoniae; Erythromycin-resistant (86)
  MIC90: 2 µg/mL (≈ 5.53 µM)
Streptococcus pneumoniae; Erythromycin-sensitive (216)
  MIC90: 4 µg/mL (≈ 11.1 µM)
Streptococcus pneumoniae; Penicillin-intermediate (124)
  MIC90: 4 µg/mL (≈ 11.1 µM)
Streptococcus pneumoniae; Penicillin-resistant (80)
  MIC90: 2 µg/mL (≈ 5.53 µM)
Streptococcus pneumoniae; Penicillin-sensitive (98)
  MIC90: 2 µg/mL (≈ 5.53 µM)
Shigella spp. [2]; [6]
  MIC: 0.015 to 0.06 mg/L (≈ 0.0415 to 0.166 µM)
Shigella spp. [2]; read-out: MIC (mg/L) 50%
  MIC: 0.03 mg/L (≈ 0.083 µM)
Shigella spp. [2]; read-out: MIC (mg/L) 90%
  MIC: 0.06 mg/L (≈ 0.166 µM)

## NC1CCN(c2nc3c(cc2F)c(=O)c(C(=O)O)cn3-c2ccc(F)cc2F)C1 (stereo not drawn) [Tosufloxacin, tosufloxacin]
Klebsiella pneumoniae [3]
  MIC50: 0.032 µg/mL (≈ 0.0791 µM)
  MIC Range: 0.016 to 2 µg/mL
Klebsiella pneumoniae [3]; read-out: MIC90
  MIC90: 0.063 µg/mL (≈ 0.156 µM)
P. aeruginosa
  MIC: 1 µg/mL (≈ 2.47 µM)
Salmonella spp.
  MIC50: 0.032 µg/mL (≈ 0.0791 µM)
  MIC90: 0.063 µg/mL (≈ 0.156 µM)
  MIC Range: 0.016 to 0.063 µg/mL
Klebsiella oxytoca
  MIC50: 0.032 µg/mL (≈ 0.0791 µM)
  MIC90: 4 µg/mL (≈ 9.89 µM)
  MIC Range: ≤0.008 to 16 µg/mL
Serratia marcescens; Serratia marcescens
  MIC50: 0.125 µg/mL (≈ 0.309 µM)
Serratia marcescens; Serratia marcescens (n=30)
  MIC90: 1 µg/mL (≈ 2.47 µM)
E. coli; E. coli (13 strains), quinolone-resistant, read-out: MIC50
  MIC50: 0.063 µg/mL (≈ 0.156 µM)
E. coli; E. coli (13 strains), quinolone-resistant, read-out: MIC90
  MIC90: 0.25 µg/mL (≈ 0.618 µM)
E. coli; E. coli KU1029, mutant type SP (spontaneous mutant in the DNA gyrase)
  MIC: 0.063 µg/mL (≈ 0.156 µM)
E. coli; E. coli KU1030, mutant type SP
  MIC: 0.031 µg/mL (≈ 0.0767 µM)
E. coli; E. coli KU1031, mutant type SP
  MIC: 0.031 µg/mL (≈ 0.0767 µM)
E. coli; E. coli KU1032, mutant type SP
  MIC: 0.125 µg/mL (≈ 0.309 µM)
E. coli; E. coli KU1033, mutant type SP
  MIC: 0.031 µg/mL (≈ 0.0767 µM)
E. coli; E. coli KU1034, mutant type GA (DNA gyrase A)
  MIC: 0.25 µg/mL (≈ 0.618 µM)
E. coli; E. coli KU1035, mutant type GA (DNA gyrase A)
  MIC: 0.25 µg/mL (≈ 0.618 µM)
E. coli; E. coli KU1036, mutant type GB (DNA gyrase B)
  MIC: 0.031 µg/mL (≈ 0.0767 µM)
E. coli; E. coli KU1038, mutant type SP
  MIC: 0.063 µg/mL (≈ 0.156 µM)
E. coli; E. coli KU1039, mutant type SP
  MIC: 0.063 µg/mL (≈ 0.156 µM)
E. coli; E. coli KU1040, mutant type SP
  MIC: ≤ 0.008 µg/mL
E. coli; E. coli KU1041, mutant type SP
  MIC: 0.25 µg/mL (≈ 0.618 µM)
E. coli; E. coli KU1042, mutant type SP
  MIC: 0.063 µg/mL (≈ 0.156 µM)
Shigella spp. [4]
  MIC50: 0.016 µg/mL (≈ 0.0396 µM)
  MIC90: 0.016 µg/mL (≈ 0.0396 µM)
  MIC Range: ≤0.008 to 0.032 µg/mL
Enterobacter aerogenes
  MIC Range: 0.016 to 0.125 µg/mL
Enterobacter aerogenes; Klebsiella aerogenes
  MIC50: 0.016 µg/mL (≈ 0.0396 µM)
  MIC90: 0.063 µg/mL (≈ 0.156 µM)
